The species entered for data set [1] is Rattus norvegicus. Description: Gastrointestinal tolerability was evaluated in rats and amount blood loss was reported. It is filed as functional.
Data set [2] deals with Rattus norvegicus. In words: Antiinflammatory activity was evaluated in an adjuvant arthritis (subchronic inflammation) test, after administering compound orally in rats. It is filed as functional. As to conditions: po.
For data set [3], the system named is Rattus norvegicus. In words: Antiinflammatory activity was evaluated in an carrageenan edema (acute inflammation) test, after administering compound orally in rats. Type of data set: functional. As to conditions: po. In general terms: Carrageenan injected into the paw causes an acute inflammation.
Data set [4] is filed under the species Rattus norvegicus. Description: Gastrointestinal tolerability was evaluated under chronic conditions, in rats. The ulcerogenic dose was reported. It is filed as functional.
Data set [5] is filed under the species Rattus norvegicus. Description: Gastrointestinal tolerability was evaluated under acute conditions, in rats. The ulcerogenic dose was reported. It is filed as functional.
The species entered for data set [6] is Rattus norvegicus. In words: Gastrointestinal tolerability was evaluated in rats and compound dose that causes lethality was reported. Type of data set: toxicity, organism-based. The note with it: in vivo.
The species entered for data set [7] is Rattus norvegicus. In words: Gastrointestinal tolerability was evaluated in rats and amount blood loss was reported. Type of data set: functional.
The subject of data set [8] is Rattus norvegicus. In words: Antiinflammatory activity was evaluated in an adjuvant arthritis (subchronic inflammation) test after administering compound orally in rats. The note with it: po. Type of data set: functional.
In data set [9] the test system is Rattus norvegicus. In words: Antiinflammatory activity was evaluated in an carrageenan edema (acute inflammation) test, after administering compound orally in rats. It is filed as functional. As to conditions: po.
The species named for data set [10] is Rattus norvegicus. Description: Gastrointestinal tolerability was evaluated under chronic conditions, in rats. The ulcerogenic dose was reported. Type of data set: functional.
Data set [11] deals with Rattus norvegicus. Description: Antiinflammatory activity was evaluated in an adjuvant arthritis (subchronic inflammation) test after administering compound orally in rats. As to conditions: po. It is filed as functional.
The subject of data set [12] is Rattus norvegicus. Description: Antiinflammatory activity was evaluated in an carrageenan edema (acute inflammation) test, after administering compound orally in rats; 50-100. Type of data set: functional. As to conditions: po.
For data set [13], the species on record is Rattus norvegicus. In words: Gastrointestinal tolerability was evaluated under acute conditions, in rats. The ulcerogenic dose was reported. Type of data set: functional.
Data set [14] is filed under the species Rattus norvegicus. Description: Gastrointestinal tolerability was evaluated under chronic conditions, in rats. The ulcerogenic dose was reported; 30-100. Type of data set: functional.
For data set [15], the species on record is Rattus norvegicus. In words: Gastrointestinal tolerability was evaluated in rats and compound dose that causes lethality was reported. Type of data set: toxicity, organism-based. As to conditions: in vivo.
Data set [16] is filed under the species Rattus norvegicus. In words: Gastrointestinal tolerability was evaluated under chronic conditions, in rats. The ulcerogenic dose from a 4-week toxicity study, was reported. Type of data set: functional.
Data set [17] relates to Rattus norvegicus. In words: Antiinflammatory activity was evaluated in an carrageenan edema (acute inflammation) test, after administering compound orally in rats; 15-30. It is filed as functional. As to conditions: po.

What is called ED50 is the dose at which the effect has come halfway, by size or by number of responders. Lower therefore signals an effect at a small dose.

A value given as a limit tells only on which side of the number the result lay.

Regarding `COc1ccc2c(c1)c(CC(=O)O)c(C)n2C(=O)c1ccc(Cl)cc1` [INDOMETHACIN], the Blood loss in data set [1] turned out to be 4 mg/kg. Moreover, the ED40 in [2] stood at 2 mg/kg. In addition, it took a dose of 4 mg/kg to reach the 50% effect level in data set [3] (ED50). For the same molecule, the UD in data set [4] and in data set [5] was 4 mg/kg each time. Besides, in [6], the Lethality amounted to 8 mg/kg.
`O=C(O)Cc1ccccc1Nc1c(Cl)cccc1Cl` [DICLOFENAC] gave a Blood loss in data set [7] of 20 mg/kg. Moreover, the ED40 in [8] is 2 mg/kg. In data set [9], this molecule yielded an ED50 of 2 mg/kg. In addition, the UD in data set [10] and in data set [5] was 20 mg/kg in each case.
Take `CC(C)Cc1ccc(C(C)C(=O)O)cc1` (configuration not stated) [IBUPROFEN]: in data set [7], the Blood loss was found to be 200 mg/kg. In addition, the ED40 in data set [11] is greater than 150 mg/kg. In data set [12], this molecule came in with an ED50 of 50 mg/kg. Besides, the UD in data set [13] and in data set [14] was 30 mg/kg throughout. The molecule also yielded a Lethality in [15] of 400 mg/kg.
With `COc1ccc2cc([C@H](C)C(=O)O)ccc2c1` [NAPROXEN], the Blood loss in [1] is greater than 30 mg/kg. Moreover, the ED40 in [2] was 10 mg/kg. In data set [3], the ED50 came out at 15 mg/kg. This molecule returned a UD in data set [5] of 5 mg/kg. This molecule registered a Lethality in [6] greater than 30 mg/kg.
The molecule `O=C(O)C1CCc2cc(CC3CCCC3)c(Cl)cc21` (configuration not stated) gave a Blood loss in data set [1] greater than 100 mg/kg. The ED40 in data set [2] was determined as 30 mg/kg. Also, the ED50 in data set [3] came to 30 mg/kg. In addition, the figures for the UD in data set [16], in [4] and in [5] were greater than 400 mg/kg, greater than 100 mg/kg and greater than 400 mg/kg, respectively.
In data set [7], `CC(C(=O)O)c1ccc2oc(-c3ccc(Cl)cc3)nc2c1` (configuration not stated) [BENOXAPROFEN] returned a Blood loss of less than 50 mg/kg. Besides, the ED40 in data set [11] was 10 mg/kg. In data set [17], this molecule gave an ED50 of 15 mg/kg. Besides, the UD in data set [13] was greater than 200 mg/kg; in [10] it was less than 30 mg/kg. The molecule also returned a Lethality in data set [15] of less than 50 mg/kg.
Take `O=C(O)C1CCc2cc(C3CCCCC3)c(Cl)cc21` (configuration not stated) [CLIDANAC]: the ED40 in data set [2] turned out to be 4 mg/kg. It took a dose of 4 mg/kg to reach the 50% effect level in [3] (ED50). This molecule had a UD in data set [5] of less than 3 mg/kg.

The record behind these values is ChEMBL document CHEMBL1122628, “Nonsteroidal antiinflammatory agents. 14. Synthesis and pharmacological profile of 6-chloro-5-(cyclopentylmethyl)indan-1-carboxylic acid” (J Med Chem, 1984).
